Nine compounds from patent publication US12295936B2, “Immunomodulating urea azalides” (Zoetis Services LLC, priority 2020, dated 2025) can be followed below.

Assay [1] concerns TNF-α. As to the kind of experiment: LPS-stimulated whole bovine blood assay, MSD cytokine detection. It is filed as cell-based. The note with it: LPS-stimulated bovine whole blood, read-out: TNF-α (IC50 μM). The procedure: Therefore, a fresh whole bovine blood assay was developed with LPS as a stimulant (TLR-4 agonist) and with IL-1β and TNF-α as the read-out. Compounds of the invention were evaluated against a positive control for their ability to inhibit LPS-induced IL-1β and TNF-α as an overall evaluation of relative potency and modulation of target pathways (Table 6).
In the bovine whole blood in vitro screening assay the inhibition of TNFα as induced by stimulation by lipopolysaccharide (LPS) and as measured by half the maximal inhibitory concentration (IC50) is recognized as the primary biomarker of immunomodulation potency upon pretreatment with the compounds of the invention. IL-1β is a mediator of the inflammation response and is involved in a number of cellular activities including proliferation, differentiation and apoptosis. IL-1β is also released upon cellular stress or cytotoxicity or upon TLR stimulation. In the bovine whole blood assay the stimulation of IL-1β release upon increasing concentration of test compound is seen as a potential cellular toxicity signal as induced by the test compound. In order to estimate a therapeutic index from the in vitro assay a differential between the TNFα IC50 (immunomodulation potency) versus the perceived cellular toxicity concentration (IL-1β release or overstimulation) was utilized.

Assay [2] has as its system IL-1β. The assay is described as above. Type of assay: cell-based. The note with it: overstimulation of IL-1β, LPS-stimulated bovine whole blood. The procedure:
The effect of multiple cytokines was not easily quantified using single cell types. Therefore, a fresh whole bovine blood assay was developed with LPS as a stimulant (TLR-4 agonist) and with IL-1β and TNF-α as the read-out. Compounds of the invention were evaluated against a positive control for their ability to inhibit LPS-induced IL-1β and TNF-α as an overall evaluation of relative potency and modulation of target pathways (Table 6).
In order to correlate RNA sequencing data to cytokine changes the whole blood assay was utilized. […] The enhancement result represents an overall stimulation of cytokine levels due to cellular stress or potential toxicity with increasing concentrations of the compound, representing a typical bell shape response curve for immunomodulatory activity.
In the bovine whole blood in vitro screening assay the inhibition of TNFα as induced by stimulation by lipopolysaccharide (LPS) and as measured by half the maximal inhibitory concentration (IC50) is recognized as the primary biomarker of immunomodulation potency upon pretreatment with the compounds of the invention.

Assay [3] has as its system BRD pathogens, M. haemolytica and P. multocida. As to the kind of experiment: MIC screening panel of BRD pathogens (antibacterial / non-antibacterial).
Setting [4] is: read-out: antibacterial / non-antibacterial (MIC for the BRD pathogens).

Where two headings read alike, the source gives them in different places.

In the case of `CC[C@H]1OC(=O)[C@H](C)[C@@H](O[C@H]2C[C@@](C)(OC)[C@](C)(O)[C@H](C)O2)[C@H](C)[C@@H](O[C@@H]2O[C@H](C)C[C@H](N(C)C(=O)N(C)c3ccccc3)[C@H]2O)[C@](C)(O)C[C@@H](C)CN[C@H](C)[C@@H](O)[C@]1(C)O` [Example B-1a, 1-((2S,3R,4S,6R)-2-(((2R,3S,4R,5R,8R,10R,11R,12S,13S,4R)-2-ethyl-3,4,10-trihydroxy-13-(((2R,4R,5R,6S)-5-hydroxy-4-methoxy-4,5,6-trimethyltetrahydro-2H-pyran-2-yl)oxy)-3,5,8,10,12,14-hexamethyl-11S-oxo-1-oxa-6-azacyclopentadecan-11-yl)oxy)-3-hydroxy-6-methyltetrahydro-2H-pyran-4-yl)-1,3-dimethyl-3-phenylurea], the IC50 (in general, the concentration that inhibits the measured activity by half) in assay [1] stood at 32 µM. The “IL-1β OS of LPS” value in assay [2] is 40 µM.
Turning to `CCCNC[C@]1(O)[C@H](C)O[C@@H](O[C@H]2[C@H](C)[C@@H](O[C@@H]3O[C@H](C)C[C@H](N(C)C(=O)N(C)c4cnccn4)[C@H]3O)[C@](C)(O)C[C@@H](C)CN[C@H](C)[C@@H](O)[C@](C)(O)[C@@H](CC)OC(=O)[C@@H]2C)C[C@@]1(C)OC` [Example H-46, 1-((2S,3R,4S,6R)-2-(((2R,3S,4R,5R,8R,10R,11R,12S,13S,14R)-2-ethyl-3,4,10-trihydroxy-13-(((2R,4R,5S,6S)-5-hydroxy-4-methoxy-4,6-dimethyl-5-((propylamino)methyl)tetrahydro-2H-pyran-2-yl)oxy)-3,5,8,10,12,14-hexamethyl-15-oxo-1-oxa-6-azacyclopentadecan-11-yl)oxy)-3-hydroxy-6-methyltetrahydro-2H-pyran-4-yl)-1,3-dimethyl-3-(pyrazin-2-yl)urea], the concentration for half-maximal inhibition (IC50) in assay [1] (Bos taurus) is over 250 µM. For the same compound, the “IL-1β OS of LPS” value in assay [2] amounted to 100 µM.
Regarding `CCCNC[C@]1(O)[C@H](C)O[C@@H](O[C@H]2[C@H](C)[C@@H](O[C@@H]3O[C@H](C)C[C@H](N(C)C(=O)N(C)c4ccc(O)cc4)[C@H]3O)[C@](C)(O)C[C@@H](C)CN[C@H](C)[C@@H](O)[C@](C)(O)[C@@H](CC)OC(=O)[C@@H]2C)C[C@@]1(C)OC` [Example H-99, 1-((2S,3R,4S,6R)-2-(((2R,3S,4R,5R,8R,10R,11R,12S,13S,14R)-2-ethyl-3,4,10-trihydroxy-13-(((2R,4R,5S,6S)-5-hydroxy-4-methoxy-4,6-dimethyl-5-((propylamino)methyl)tetrahydro-2H-pyran-2-yl)oxy)-3,5,8,10,12,14-hexamethyl-15-oxo-1-oxa-6-azacyclopentadecan-11-yl)oxy)-3-hydroxy-6-methyltetrahydro-2H-pyran-4-yl)-3-(4-hydroxyphenyl)-1,3-dimethylurea], the MIC in assay [3] (setting [4]) is over 64 mg/L.
`CCCNC[C@]1(O)[C@H](C)O[C@@H](O[C@H]2[C@H](C)[C@@H](O[C@@H]3O[C@H](C)C[C@H](N(C)C(=O)N(C)c4ccccc4)[C@H]3O)[C@](C)(O)C[C@@H](C)CN(C)[C@H](C)[C@@H](O)[C@](C)(O)[C@@H](CC)OC(=O)[C@@H]2C)C[C@@]1(C)OC` [Example H-101, 1-((2S,3R,4S,6R)-2-(((2R,3S,4R,5R,8R,10R,11R,12S,13S,14R)-2-ethyl-3,4,10-trihydroxy-13-(((2R,4R,5S,6S)-5-hydroxy-4-methoxy-4,6-dimethyl-5-((propylamino)methyl)tetrahydro-2H-pyran-2-yl)oxy)-3,5,6,8,10,12,14-heptamethyl-15-oxo-1-oxa-6-azacyclopentadecan-11-yl)oxy)-3-hydroxy-6-methyltetrahydro-2H-pyran-4-yl)-1,3-dimethyl-3-phenylurea]: the MIC in assay [3] (setting [4]) is over 64 mg/L.
Turning to `CC[C@H]1OC(=O)[C@H](C)[C@@H](O[C@H]2C[C@@](C)(OC)[C@](O)(CNC)[C@H](C)O2)[C@H](C)[C@@H](O[C@@H]2O[C@H](C)C[C@H](N(C)C(=O)N3CCN(CC)CC3)[C@H]2O)[C@](C)(O)C[C@@H](C)CN[C@H](C)[C@@H](O)[C@]1(C)O` [Example I-1, 4-ethyl-N-((2S,3R,4S,6R)-2-(((2R,3S,4R,5R,8R,10R,11R,12S,13S,14R)-2-ethyl-3,4,10-trihydroxy-13-(((2R,4R,5S,6S)-5-hydroxy-4-methoxy-4,6-dimethyl-5-((methylamino)methyl)tetrahydro-2H-pyran-2-yl)oxy)-3,5,8,10,12,14-hexamethyl-15-oxo-1-oxa-6-azacyclopentadecan-11-yl)oxy)-3-hydroxy-6-methyltetrahydro-2H-pyran-4-yl)-N-methylpiperazine-1-carboxamide], in assay [3] (setting [4]), the MIC is over 64 mg/L.
As to `CC[C@H]1OC(=O)[C@H](C)[C@@H](O[C@H]2C[C@@](C)(OC)[C@](O)(CN3CCSCC3)[C@H](C)O2)[C@H](C)[C@@H](O[C@@H]2O[C@H](C)C[C@H](N(C)C(=O)N(C)c3ccccc3)[C@H]2O)[C@](C)(O)C[C@@H](C)CN[C@H](C)[C@@H](O)[C@]1(C)O` [Example J-11, 1-((2S,3R,4S,6R)-2-(((2R,3S,4R,5R,8R,10R,11R,12S,13S,14R)-2-ethyl-3,4,10-trihydroxy-13-(((2R,4R,5S,6S)-5-hydroxy-4-methoxy-4,6-dimethyl-5-(thiomorpholinomethyl)tetrahydro-2H-pyran-2-yl)oxy)-3,5,8,10,12,14-hexamethyl-15-oxo-1-oxa-6-azacyclopentadecan-11-yl)oxy)-3-hydroxy-6-methyltetrahydro-2H-pyran-4-yl)-1,3-dimethyl-3-phenylurea], in assay [3] (read-out: MIC ≤64 μg/mL for at least one of the bacterial strains (flag * at Ex #)), the MIC was under 64 mg/L.
With `CC[C@H]1OC(=O)[C@H](C)[C@@H](O[C@H]2C[C@@](C)(OC)[C@](O)(CN3CCN(c4ncccn4)CC3)[C@H](C)O2)[C@H](C)[C@@H](O[C@@H]2O[C@H](C)C[C@H](N(C)C(=O)N(C)c3ccccc3)[C@H]2O)[C@](C)(O)C[C@@H](C)CN[C@H](C)[C@@H](O)[C@]1(C)O` [Example J-13, 1-((2S,3R,4S,6R)-2-(((2R,3S,4R,5R,8R,10R,11R,12S,13S,14R)-2-ethyl-3,4,10-trihydroxy-13-(((2R,4R,5S,6S)-5-hydroxy-4-methoxy-4,6-dimethyl-5-((4-(pyrimidin-2-yl)piperazin-1-yl)methyl)tetrahydro-2H-pyran-2-yl)oxy)-3,5,8,10,12,14-hexamethyl-15-oxo-1-oxa-6-azacyclopentadecan-11-yl)oxy)-3-hydroxy-6-methyltetrahydro-2H-pyran-4-yl)-1,3-dimethyl-3-phenylurea], the MIC in assay [3] (setting [4]) is over 64 mg/L.
As to `CC[C@H]1OC(=O)[C@H](C)[C@@H](O[C@H]2C[C@@](C)(OC)[C@](O)(CN3CCC3)[C@H](C)O2)[C@H](C)[C@@H](O[C@@H]2O[C@H](C)C[C@H](N(C)C(=O)N(C)c3ccccc3)[C@H]2O)[C@](C)(O)C[C@@H](C)CN[C@H](C)[C@@H](O)[C@]1(C)O` [Example J-22, 1-((2S,3R,4S,6R)-2-(((2R,3S,4R,5R,8R,10R,11R,12S,13S,14R)-13-(((2R,4R,5S,6S)-5-(azetidin-1-ylmethyl)-5-hydroxy-4-methoxy-4,6-dimethyltetrahydro-2H-pyran-2-yl)oxy)-2-ethyl-3,4,10-trihydroxy-3,5,8,10,12,14-hexamethyl-15-oxo-1-oxa-6-azacyclopentadecan-11-yl)oxy)-3-hydroxy-6-methyltetrahydro-2H-pyran-4-yl)-1,3-dimethyl-3-phenylurea], in assay [3] (setting [4]), the MIC was over 64 mg/L.
`CC[C@H]1OC(=O)[C@H](C)[C@@H](O[C@H]2C[C@@](C)(OC)[C@](O)(Cn3cccn3)[C@H](C)O2)[C@H](C)[C@@H](O[C@@H]2O[C@H](C)C[C@H](N(C)C(=O)N(C)c3ccccc3)[C@H]2O)[C@](C)(O)C[C@@H](C)CN[C@H](C)[C@@H](O)[C@]1(C)O` [Example J-23, 1-((2S,3R,4S,6R)-2-(((2R,3S,4R,5R,8R,10R,11R,12S,13S,14R)-13-(((2R,4R,5S,6S)-5-((1H-pyrazol-1-yl)methyl)-5-hydroxy-4-methoxy-4,6-dimethyltetrahydro-2H-pyran-2-yl)oxy)-2-ethyl-3,4,10-trihydroxy-3,5,8,10,12,14-hexamethyl-15-oxo-1-oxa-6-azacyclopentadecan-11-yl)oxy)-3-hydroxy-6-methyltetrahydro-2H-pyran-4-yl)-1,3-dimethyl-3-phenylurea]: the MIC in assay [3] (setting [4]) is over 64 mg/L.
